Measurements published in US9169247B2, “Tetrahydro-beta-carboline derivatives, synthesis and use thereof” (Southern Research Institute, priority 2009, dated 2015).

Tested on: cGMP phosphodiesterase
Test: cGMP phosphodiesterase activity in whole cell lysates (fluorescence polarization)
Format: biochemical, human
Settings: lysates from MDA-MB-231 cells treated for 18 hours; FIG. 2
Method: FIG. 2 illustrates cGMP phosphodiesterase inhibitory activity of compound 2f. Whole cell lysates from human MDA-MB-231 breast tumor cells treated for 18 hours with compound 2f were assayed for cGMP phosphodiesterase activity using a fluorescence polarization assay (Molecular Devices Inc).

COC(=O)[C@H]1Cc2c([nH]c3ccccc23)[C@H](c2cc(OC)ccc2OC)N1C(=O)CCl [Compound 2f, Methyl (1S,3R)-1-(2,5-dimethoxyphenyl)-2-(2-chloroacetyl)-2,3,4,9-tetrahydro-1H-β-carboline-3-carboxylate]
cGMP PDE activity in lysates: selectively inhibited
